The target of assay [1] is T1, CXCR-4 (Homo sapiens, UniProt P61073). Description: Inhibition of binding of I125 labeled SDF-1 to CXCR-4 receptor. To be noted: I125 labeled SDF-1 as competitor ligand. The method, then:
This example discloses the ability of compounds of the invention, such as naphthoic acid derivatives, such as CTCM226 (1), to inhibit binding of SDF-1 to CXCR-4 receptor. The binding studies were conducted using I^125 labeled SDF-1 as competitor ligand.

The target in assay [2] is T1, CXCR-4. The experiment in a line: Inhibition of SDF-1 induced intracellular [Ca2+]i mobilization in THP-1 cells. In kind it is cell-based. Also on record: endogenous in cells; host or cells: THP-1 cells. To be noted: Fura-2,AM loaded THP-1 cells; incubated 60 min prior to induction by 10 nM SDF-1. The method, then:
A rapid, transient rise in the free cytosolic Ca^2+ concentration ([Ca^2+]i) is one of the events associated with the Chemokine mediated induction of the associated receptors and is assumed to be involved in many of the subsequent cellular reactions. Both Ca^2+ release from intracellular stores and Ca^2+ influx from the extracellular space contribute to the rise in [Ca^2+]i. […] Fura-2,AM loaded THP-1 cells were incubated with CTCM226 for 60 min prior to induction of [Ca^2+]i mobilization by 10 nM SDF-1. Results illustrate the effect of CTCM226 (1) on SDF-1 induced Ca^2+ mobilization.
In accordance with this aspect of the invention, the naphthoic acid derivative, such as compound 1 or corresponding salts may be used for the treatment of a wide range of inflammatory diseases such as gout, arthritis, osteoarthritis, rheumatoid arthritis, and ARDS.

T1 sequence (P61073 whole entry): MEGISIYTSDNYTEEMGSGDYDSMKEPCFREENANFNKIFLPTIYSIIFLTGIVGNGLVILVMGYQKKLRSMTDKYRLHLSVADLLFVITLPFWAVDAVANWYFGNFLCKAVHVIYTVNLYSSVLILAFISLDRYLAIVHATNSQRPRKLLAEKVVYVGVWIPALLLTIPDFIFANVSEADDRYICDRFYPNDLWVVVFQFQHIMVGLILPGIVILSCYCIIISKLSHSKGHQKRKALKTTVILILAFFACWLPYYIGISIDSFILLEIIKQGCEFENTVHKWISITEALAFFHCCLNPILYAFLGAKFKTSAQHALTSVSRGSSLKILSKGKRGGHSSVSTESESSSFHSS

On to `O=C(O)c1cc2ccccc2cc1O` [Compound 1, 3-Hydroxy-2-naphthoic acid], for which the half-maximal inhibitory concentration (IC50) (commonly the concentration that gives 50% inhibition) on CXCR-4 [1] was found to be 150 µM; against CXCR-4 [2] it was 0.6 µM.

The record behind these values is US6693134B2, “Bicyclic aromatic chemokine receptor ligands” (Chemokine Therapeutics Corporation, priority 2001, dated 2004).
